Results reported in publication PMC4182912 (Journal of medicinal chemistry, 2008).

Assays:
[1] = molecular target: recombinant hCB1r (Homo sapiens, UniProt P21554); type: biochemical
[2] = test system: P-glycoprotein (P-gp) efflux pumps; conditions: cited from earlier work

Chain of recombinant hCB1r (P21554 whole entry): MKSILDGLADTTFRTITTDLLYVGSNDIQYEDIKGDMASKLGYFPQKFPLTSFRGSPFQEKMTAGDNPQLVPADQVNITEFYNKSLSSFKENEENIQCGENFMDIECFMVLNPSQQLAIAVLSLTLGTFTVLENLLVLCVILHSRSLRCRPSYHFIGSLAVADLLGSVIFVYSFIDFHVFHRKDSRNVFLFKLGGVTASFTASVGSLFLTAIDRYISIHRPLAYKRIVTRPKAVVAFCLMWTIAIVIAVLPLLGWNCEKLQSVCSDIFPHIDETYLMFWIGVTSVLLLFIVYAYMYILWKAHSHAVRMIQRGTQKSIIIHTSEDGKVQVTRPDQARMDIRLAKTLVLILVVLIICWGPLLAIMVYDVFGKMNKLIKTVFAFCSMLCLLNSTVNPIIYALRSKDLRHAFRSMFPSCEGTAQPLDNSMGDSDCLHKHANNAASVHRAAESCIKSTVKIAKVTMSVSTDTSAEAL

eudismic ratio (CB1 receptor affinity, (-)- vs (+)-enantiomer) [1]	Structure (SMILES)	substrate behavior for P-gp efflux pumps [2]
~56	NC(=NS(=O)(=O)c1ccc(I)cc1)N1CC(c2ccccc2)C(c2ccc(Cl)cc2)=N1 (stereo not drawn) [Ligand 12c, 3-(4-Chlorophenyl)-N’-[(4-iodophenyl)sulfonyl]-4-phenyl-4,5-dihydro-1H-pyrazole-1-carboxamidine]	
	CN=C(NS(=O)(=O)c1ccc(Cl)cc1)N1C[C@H](c2ccccc2)C(c2ccc(Cl)cc2)=N1 [Ligand 3, (4S)-3-(4-chlorophenyl)-N-methyl-N’-[(4-chlorophenyl)sulfonyl]-4-phenyl-4,5-dihydro-1H-pyrazole-1-carboxamidine]	little to no substrate behavior
about 35	N#Cc1ccc(S(=O)(=O)N=C(N)N2CC(c3ccccc3)C(c3ccc(Cl)cc3)=N2)cc1 (stereo not drawn) [Ligand 12a, 3-(4-Chlorophenyl)-N’-[(4-cyanophenyl)sulfonyl]-4-phenyl-4,5-dihydro-1H-pyrazole-1-carboxamidine]	
